In US20240391862A1, “(1,4,5-TRISUBSTITUTED-1H-PYRAZOL-3-YL)OXY-2-ALKOXY ALKYL ACIDS AND THEIR DERIVATIVES, THEIR SALTS AND THEIR USE AS HERBICIDAL AGENTS” (Bayer AKtiengesellschaft, priority 2021, published 2024):

Key:
[1] = test system: VERPE; assay: Post-emergence herbicidal effect, greenhouse pot test; assay type: in vivo, Veronica persica
Method in brief: (§1)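 Greenhouse pot plants in sandy loam receive a one-leaf-stage spray at 20 to 320 g/ha. Activity is assessed visually around 3 weeks afterwards on a 0–100% scale, where 100% means the plants have died.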

[2] = test system: SETVI; assay: as above; assay type: in vivo, Setaria viridis
Method in brief: as §1

[3] = test system: AMARE; assay: as above; assay type: in vivo, Amaranthus retroflexus; conditions: visual rating about 3 weeks after treatment; for pest or weed control at 320 g/ha: Amaranthus retroflexus, 504 h, read-out: Post-emergence effect against AMARE
Method in brief: as §1

[4] = test system: VIOTR; assay: as above; assay type: in vivo, Viola tricolor
Method in brief: as §1

[5] = test system: KCHSC; assay: as above; assay type: in vivo
Method in brief: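 Visual rating of activity against untreated plants (100% = plants died, 0% = no effect), done about 3 weeks after treatment. Compounds applied at 20–320 g/ha as aqueous spray (600 l/ha, 0.5% additive) from WP or EC formulations onto one-leaf-stage plants grown in sandy loam under greenhouse conditions.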

[6] = test system: DIGSA; assay: as above; assay type: in vivo, Digitaria sanguinalis; conditions: visual rating about 3 weeks after treatment; for Post-emergence effect against DIGSA / pest or weed control at 320 g/ha: 320 g/ha; for pest or weed control at 80 g/ha / pest or weed control at 320 g/ha: Digitaria sanguinalis, 504 h, read-out: Post-emergence effect against DIGSA
Method in brief: as §1

[7] = test system: ECHCG; assay: as above; assay type: in vivo, Echinochloa crus-galli; conditions: for pest or weed control at 80 g/ha / pest or weed control at 320 g/ha: Echinochloa crus-galli, 504 h, read-out: Post-emergence effect against ECHCG in %
Method in brief: as §1

[8] = test system: LOLRI; assay: as above; assay type: in vivo, Lolium rigidum
Method in brief: as §1

[9] = test system: POLCO; assay: as above; assay type: in vivo, Fallopia convolvulus; conditions: for pest or weed control at 20 g/ha / pest or weed control at 80 g/ha / pest or weed control at 320 g/ha: Fallopia convolvulus, 504 h, read-out: Post-emergence effect against POLCO in %
Method in brief: as §1

[10] = test system: ALOMY; assay: as above; assay type: in vivo, Alopecurus myosuroides; conditions: visual rating about 3 weeks after treatment; for pest or weed control at 320 g/ha: Alopecurus myosuroides, 504 h, read-out: Post-emergence effect against ALOMY
Method in brief: as §1

[11] = test system: ABUTH; assay: as above; assay type: in vivo, Abutilon theophrasti; conditions: visual rating about 3 weeks after treatment; for pest or weed control at 80 g/ha / pest or weed control at 320 g/ha: Abutilon theophrasti, 504 h, read-out: Post-emergence effect against ABUTH
Method in brief: as §1

[12] = test system: AVEFA; assay: as above; assay type: in vivo, Avena fatua; conditions: visual rating about 3 weeks after treatment
Method in brief: as §1

[13] = test system: ZEAMX; assay: Post-emergence herbicidal effect and crop plant compatibility, greenhouse pot test; assay type: in vivo, Zea mays; conditions: one-leaf stage, rated visually after about 3 weeks vs untreated controls; for plant injury at 20 g/ha: read-out: Post-emergence effect at 20 g/ha against ZEAMX in %
Method in brief: as §1

[14] = test system: PHBPU; assay: Post-emergence herbicidal effect, greenhouse pot test; assay type: in vivo, Ipomoea purpurea; conditions: for pest or weed control at 80 g/ha / pest or weed control at 320 g/ha: Ipomoea purpurea, 504 h, read-out: Post-emergence effect against PHBPU in %
Method in brief: as §1

[15] = test system: MATIN; assay: as above; assay type: in vivo, Tripleurospermum inodorum
Method in brief: as §1

[16] = Veronica persica, 504 h, 320 g/ha, read-out: Post-emergence effect against VERPE in %
[17] = Setaria viridis, 504 h, 320 g/ha, read-out: Post-emergence effect against SETVI in %
[18] = Viola tricolor, 504 h, 80 g/ha, read-out: Post-emergence effect against VIOTR in %
[19] = Viola tricolor, 504 h, 320 g/ha, read-out: Post-emergence effect against VIOTR in %
[20] = 504 h, 80 g/ha, read-out: Post-emergence effect against KCHSC in %
[21] = 504 h, 320 g/ha, read-out: Post-emergence effect against KCHSC in %
[22] = Lolium rigidum, 504 h, 80 g/ha, read-out: Post-emergence effect against LOLRI in %
[23] = Lolium rigidum, 504 h, 320 g/ha, read-out: Post-emergence effect against LOLRI in %
[24] = Avena fatua, 504 h, 80 g/ha, read-out: Post-emergence effect against AVEFA
[25] = Avena fatua, 504 h, 320 g/ha, read-out: Post-emergence effect against AVEFA
[26] = Tripleurospermum inodorum, 504 h, 320 g/ha, read-out: Post-emergence effect against MATIN in %

COC(=O)C(OC)Oc1nn(-c2ncccc2F)c(-c2cncc(F)c2)c1C1CC1 (stereo not drawn) [Example I-86]
Post-emergence effect against VERPE in % ([1]; 80 g/ha): 80% | Post-emergence effect against VERPE in % ([1]; 320 g/ha): 90% | Post-emergence effect against SETVI in % ([2]; 80 g/ha): 90% | Post-emergence effect against SETVI in % ([2]; 320 g/ha): 90% | Post-emergence effect against AMARE ([3]; 80 g/ha): 80% | Post-emergence effect against AMARE ([3]; 320 g/ha): 90% | Post-emergence effect against VIOTR in % ([4]; 80 g/ha): 90% | Post-emergence effect against VIOTR in % ([4]; 320 g/ha): 90% | Post-emergence effect against KCHSC in % ([5]; 80 g/ha): 90% | Post-emergence effect against KCHSC in % ([5]; 320 g/ha): 90% | Post-emergence effect against DIGSA [6]: 80% | Post-emergence effect against ECHCG ([7]; 20 g/ha, visual rating about 3 weeks after treatment): 80% | Post-emergence effect against ECHCG in % ([7]; 80 g/ha): 90% | Post-emergence effect against ECHCG in % ([7]; 320 g/ha): 90% | Post-emergence effect against LOLRI in % ([8]; 80 g/ha): 90% | Post-emergence effect against LOLRI in % ([8]; 320 g/ha): 90% | pest or weed control at 20 g/ha ([8]; Lolium rigidum, 504 h, 20 g/ha, read-out: Post-emergence effect against LOLRI in %): 80% | Post-emergence effect against POLCO in % ([9]; 80 g/ha): 80% | Post-emergence effect against POLCO in % ([9]; 320 g/ha): 90% | pest or weed control at 20 g/ha [9]: 80% | Post-emergence effect against ALOMY ([10]; 80 g/ha): 90% | Post-emergence effect against ALOMY ([10]; 320 g/ha): 90% | Post-emergence effect against ABUTH ([11]; 80 g/ha): 80% | Post-emergence effect against ABUTH ([11]; 320 g/ha): 80% | Post-emergence effect against AVEFA ([12]; 80 g/ha): 90% | Post-emergence effect against AVEFA ([12]; 320 g/ha): 90% | pest or weed control at 20 g/ha ([12]; Avena fatua, 504 h, 20 g/ha, read-out: Post-emergence effect against AVEFA): 80% | plant injury at 20 g/ha ([13]; Zea mays, 504 h, 20 g/ha): 0% | plant injury at 80 g/ha ([13]; Zea mays, 504 h, 80 g/ha, read-out: Post-emergence effect at 80 g/ha against ZEAMX in %): 0% | Post-emergence effect against PHBPU in % ([14]; 20 g/ha): 80% | Post-emergence effect against PHBPU in % ([14]; 80 g/ha): 90% | Post-emergence effect against PHBPU in % ([14]; 320 g/ha): 90% | Post-emergence effect against MATIN in % ([15]; 320 g/ha): 90%

CCOC(=O)C(OC)Oc1nn(-c2ncccc2F)c(-c2ccc(F)nc2)c1Cl (stereo not drawn) [Example I-48]
pest or weed control at 80 g/ha ([1]; Veronica persica, 504 h, 80 g/ha, read-out: Post-emergence effect against VERPE in %): 80% | pest or weed control at 320 g/ha [1, 16]: 90% | pest or weed control at 80 g/ha ([2]; Setaria viridis, 504 h, 80 g/ha, read-out: Post-emergence effect against SETVI in %): 90% | pest or weed control at 320 g/ha [2, 17]: 90% | pest or weed control at 320 g/ha ([3]; 320 g/ha): 80% | pest or weed control at 20 g/ha ([4]; Viola tricolor, 504 h, 20 g/ha, read-out: Post-emergence effect against VIOTR in %): 80% | pest or weed control at 80 g/ha [4, 18]: 90% | pest or weed control at 320 g/ha [4, 19]: 90% | pest or weed control at 80 g/ha [5, 20]: 80% | pest or weed control at 320 g/ha [5, 21]: 90% | pest or weed control at 80 g/ha [6]: 80% | pest or weed control at 320 g/ha [6]: 90% | pest or weed control at 80 g/ha ([7]; 80 g/ha): 90% | pest or weed control at 320 g/ha ([7]; 320 g/ha): 90% | pest or weed control at 80 g/ha [8, 22]: 90% | pest or weed control at 320 g/ha [8, 23]: 90% | pest or weed control at 20 g/ha [9]: 80% | pest or weed control at 80 g/ha ([9]; 80 g/ha): 80% | pest or weed control at 320 g/ha ([9]; 320 g/ha): 80% | pest or weed control at 320 g/ha ([10]; 320 g/ha): 90% | pest or weed control at 80 g/ha ([11]; 80 g/ha): 80% | pest or weed control at 320 g/ha ([11]; 320 g/ha): 90% | pest or weed control at 80 g/ha [12, 24]: 90% | pest or weed control at 320 g/ha [12, 25]: 90% | plant injury at 20 g/ha ([13]; Zea mays, 504 h, 20 g/ha): 0% | pest or weed control at 80 g/ha ([14]; 80 g/ha): 90% | pest or weed control at 320 g/ha ([14]; 320 g/ha): 90% | pest or weed control at 80 g/ha ([15]; Tripleurospermum inodorum, 504 h, 80 g/ha, read-out: Post-emergence effect against MATIN in %): 80% | pest or weed control at 320 g/ha [15, 26]: 90%

CCOC(=O)C(OC)Oc1nn(-c2ncccc2F)c(-c2ccc(F)nc2)c1Br (stereo not drawn) [Example I-14]
pest or weed control at 320 g/ha [1, 16]: 90% | pest or weed control at 320 g/ha [2, 17]: 90% | pest or weed control at 320 g/ha ([3]; 320 g/ha): 80% | pest or weed control at 80 g/ha [4, 18]: 90% | pest or weed control at 320 g/ha [4, 19]: 90% | pest or weed control at 80 g/ha [5, 20]: 90% | pest or weed control at 320 g/ha [5, 21]: 90% | pest or weed control at 80 g/ha [6]: 80% | pest or weed control at 320 g/ha [6]: 90% | pest or weed control at 80 g/ha ([7]; 80 g/ha): 90% | pest or weed control at 320 g/ha ([7]; 320 g/ha): 90% | pest or weed control at 80 g/ha [8, 22]: 90% | pest or weed control at 320 g/ha [8, 23]: 90% | pest or weed control at 80 g/ha ([9]; 80 g/ha): 80% | pest or weed control at 320 g/ha ([9]; 320 g/ha): 80% | pest or weed control at 320 g/ha ([10]; 320 g/ha): 90% | pest or weed control at 80 g/ha ([11]; 80 g/ha): 90% | pest or weed control at 320 g/ha ([11]; 320 g/ha): 90% | pest or weed control at 80 g/ha [12, 24]: 90% | pest or weed control at 320 g/ha [12, 25]: 90% | plant injury at 20 g/ha ([13]; Zea mays, 504 h, 20 g/ha): 0% | pest or weed control at 80 g/ha ([14]; 80 g/ha): 80% | pest or weed control at 320 g/ha ([14]; 320 g/ha): 90% | pest or weed control at 320 g/ha [15, 26]: 90%

COC(Oc1nn(-c2ncccc2F)c(-c2ccc(F)nc2)c1C1CC1)C(=O)O (stereo not drawn) [Example I-90]
Post-emergence effect against VERPE in % ([1]; 320 g/ha): 80% | Post-emergence effect against SETVI in % ([2]; 320 g/ha): 90% | pest or weed control at 320 g/ha ([3]; 320 g/ha): 80% | Post-emergence effect against VIOTR in % ([4]; 320 g/ha): 90% | Post-emergence effect against KCHSC in % ([5]; 320 g/ha): 90% | pest or weed control at 20 g/ha ([5]; 504 h, 20 g/ha, read-out: Post-emergence effect against KCHSC in %): 80% | pest or weed control at 80 g/ha [5, 20]: 90% | Post-emergence effect against DIGSA [6]: 80% | Post-emergence effect against ECHCG in % ([7]; 80 g/ha): 90% | Post-emergence effect against ECHCG in % ([7]; 320 g/ha): 90% | Post-emergence effect against LOLRI in % ([8]; 320 g/ha): 90% | Post-emergence effect against POLCO in % ([9]; 320 g/ha): 80% | Post-emergence effect against ALOMY ([10]; 320 g/ha): 90% | Post-emergence effect against ABUTH ([11]; 320 g/ha): 90% | Post-emergence effect against AVEFA ([12]; 320 g/ha): 90% | Post-emergence effect at 20 g/ha against ZEAMX in % ([13]; 20 g/ha): 0% | Post-emergence effect at 80 g/ha against ZEAMX in % ([13]; 80 g/ha): 0% | Post-emergence effect at 320 g/ha against ZEAMX in % ([13]; 320 g/ha): 0% | Post-emergence effect against PHBPU in % ([14]; 320 g/ha): 90%
